The values that follow come from US20080085884A1, “Melanin Concentrating Hormone Receptor-1 Antagonist Pyridinones” (Pfizer Inc, priority 2006, published 2008).

pKi: −log10 of the molar value.

In this experiment the target is T1, human MCHR1 (Homo sapiens, UniProt Q99705).
T1 construct: host or cells: CHO
T1 sequence (Q99705 whole entry): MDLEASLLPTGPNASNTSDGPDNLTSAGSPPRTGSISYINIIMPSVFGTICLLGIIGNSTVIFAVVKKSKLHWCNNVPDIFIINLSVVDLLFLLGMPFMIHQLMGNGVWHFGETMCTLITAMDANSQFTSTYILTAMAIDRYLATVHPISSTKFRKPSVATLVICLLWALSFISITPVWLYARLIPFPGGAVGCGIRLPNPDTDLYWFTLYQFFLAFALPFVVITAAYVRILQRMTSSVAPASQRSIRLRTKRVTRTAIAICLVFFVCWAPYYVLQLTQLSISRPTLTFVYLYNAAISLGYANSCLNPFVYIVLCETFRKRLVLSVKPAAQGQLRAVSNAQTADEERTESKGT
In words: Cyclic AMP assay (MCHR-1 functional antagonism). The format is cell-based. The settings on record: CHO cells stably expressing human MCHR1; cAMP accumulation with 25 uM forskolin and 0.2 nM MCH, 90 min; Ki from IC50 by Cheng-Prusoff; read-out: MCHR-1 functional Ki. On the technique in general: Changes in cAMP serve as a functional read-out for many G protein-coupled receptors.
As for `CN(C(=O)OC(C)(C)C)[C@@H]1CCN(c2ccc(-n3ccc(OCc4ccc(Cl)cc4)cc3=O)cn2)C1` [Example 197], the pKi (as a rule, the negative decadic logarithm of the Ki, by convention in mol/L) is 8.11.

For the compound `CN(C(=O)OC(C)(C)C)[C@H]1CCN(c2ccc(-n3ccc(OCc4ccc(Cl)cc4)cc3=O)cn2)C1` [Example 198], the pKi is 7.97.

In the case of `O=c1cc(OCc2ccc(Cl)c(Cl)c2)ccn1-c1ccc(N2CC[C@@H](O)C2)nc1` [Example 204], the pKi is 6.48.

For `O=c1cc(OCc2cccc(Cl)c2Cl)ccn1-c1ccc(N2CC[C@@H](O)C2)nc1` [Example 205], the pKi is 6.30.

Regarding `O=c1cc(OCc2ccc(F)c(Cl)c2)ccn1-c1ccc(N2CC[C@@H](O)C2)nc1` [Example 206], the pKi was 6.60.

Turning to `CC(C)N1C[C@H]2CN(c3ccc(-n4ccc(OCc5ccc(F)cc5)cc4=O)cn3)C[C@H]2C1` [Example 207], the pKi was 8.19.

Take `O=c1cc(OCc2ccc(F)cc2)ccn1-c1ccc(N2C[C@@H]3CN(C4CCC4)C[C@@H]3C2)nc1` [Example 208]: the pKi is 8.57.

For the compound `CC(C)N1C[C@H]2CN(c3ccc(-n4ccc(OCc5ccccc5)cc4=O)cn3)C[C@H]2C1` [Example 209], the pKi is 7.97.

On to `O=c1cc(OCc2ccccc2)ccn1-c1ccc(N2C[C@@H]3CN(C4CCC4)C[C@@H]3C2)nc1` [Example 210], for which the pKi is 8.34.

Regarding `NC1CCN(c2ccc(-n3ccc(OCc4ccccc4)cc3=O)cn2)CC1` [Example 214], the pKi is 6.97.

With `O=c1cc(OCc2ccccc2)ccn1-c1ccc(N2CCCNCC2)nc1` [Example 216], the pKi is 7.11.

`N[C@@H]1[C@H]2CN(c3ccc(-n4ccc(OCc5ccccc5)cc4=O)cn3)C[C@@H]12` [Example 217]: the pKi was 7.96.

Regarding `O=c1cc(OCc2ccccc2)ccn1-c1ccc(N2CCC3(CCNC3)C2)nc1` (stereo not drawn) [Example 219], the pKi was 8.07.

On to `O=c1cc(OCc2ccccc2)ccn1-c1ccc(N2CC3CCC(C2)N3)nc1` [Example 220], for which the pKi is 6.29.

For the compound `CC(C)C1CN(c2ccc(-n3ccc(OCc4ccccc4)cc3=O)cn2)CCN1` (stereo not drawn) [Example 221], the pKi is 6.90.

As for `CC(C)CC1CN(c2ccc(-n3ccc(OCc4ccccc4)cc3=O)cn2)CCN1` (stereo not drawn) [Example 222], the pKi was 6.17.

For `CCC1CN(c2ccc(-n3ccc(OCc4ccccc4)cc3=O)cn2)CCN1` (stereo not drawn) [Example 223], the pKi is 6.71.

Take `CNC1CCN(c2ccc(-n3ccc(OCc4ccccc4)cc3=O)cn2)CC1` [Example 230]: the pKi is 7.16.

For the compound `O=c1cc(OCc2ccccc2)ccn1-c1ccc(N2C[C@H]3C[C@@H]2CN3)nc1` [Example 231], the pKi was 6.12.

As to `NC1CN(c2ccc(-n3ccc(OCc4ccccc4)cc3=O)cn2)C1` [Example 232], the pKi was 6.62.

With `COCC1CCCN(c2ccc(-n3ccc(OCc4ccccc4)cc3=O)cn2)CC1` (stereo not drawn) [Example 233], the pKi is 7.75.

Turning to `CO[C@@H]1CCN(c2ccc(-n3ccc(OCc4ccccc4)cc3=O)cn2)C1` [Example 235], the negative logarithm of the Ki (pKi) is 7.96.

Turning to `CN(C)C1CN(c2ccc(-n3ccc(OCc4ccccc4)cc3=O)cn2)C1` [Example 239], the pKi was 7.39.

On to `CC1(O)CCN(c2ccc(-n3ccc(OCc4ccccc4)cc3=O)cn2)C1` (stereo not drawn) [Example 240], for which the pKi is 7.11.
